# Literature values, collected in patent US20060106004A1, “Unique methods and formulations of bio-identical sex steroids for the treatment of pathophysiologic aberrations of menopause” (priority 2004, published 2006).
# Assays:
# uterus = settings: ovariectomized rats
# metastatic breast cancer = settings: doses from 2.5 to 15 mg/day
# mammary carcinoma = settings: following radiation or carcinogenesis
structure (smiles),measurement,setting,value
"C[C@]12CC[C@@H]3c4ccc(O)cc4CC[C@H]3[C@@H]1C[C@@H](O)[C@@H]2O [Estriol, estriol]",stimulation of uterine weights,uterus,does not significantly stimulate uterine weights
same,proportion of women with arrested growth and remission of metastatic lesions,metastatic breast cancer,Over ⅓
same,reduction of mammary carcinoma rates,mammary carcinoma,80%
